Source: US6656911B2, “Serine protease inhibitors” (Cortech, Inc., priority 1994, dated 2003)

Legend:
[1] = target: T1, human neutrophil elastase (HNE) (Homo sapiens, UniProt P08246); assay: HNE Ki of CE compounds, tested as described in WO 96/16080; assay type: biochemical; conditions: read-out: HNE Ki
T1 sequence (P08246 30-267): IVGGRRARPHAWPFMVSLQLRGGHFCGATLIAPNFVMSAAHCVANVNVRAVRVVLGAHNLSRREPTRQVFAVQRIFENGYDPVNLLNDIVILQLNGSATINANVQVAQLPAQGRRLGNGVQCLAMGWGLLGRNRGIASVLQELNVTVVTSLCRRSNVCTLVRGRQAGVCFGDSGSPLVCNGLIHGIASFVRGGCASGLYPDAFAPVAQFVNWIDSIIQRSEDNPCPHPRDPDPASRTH

[2] = system: polymorphoneucleocyte (PMN); assay: Extracellular Matrix (ECM) degradation assay; assay type: cell-based; conditions: PMN's stimulated with opsonized zymosan, 4 hr at 37° C.; for ECM DATA % Inhibition 1 uM / inhibition at 1 µM: 1 uM inhibitor; for ECM DATA % Inhibition 5 uM / inhibition at 5 µM: 5 uM inhibitor
Description: Forty-eight well plates on which extracellular matrix had been established were supplied to Cortech by Dr. Simon's group at the State University of New York at Stony Brook. Briefly, the plates were prepared as follows: R22 rat heart smooth muscle cells were seeded into wells at 2.5×10^4 cells/cm. The cells were fed every 4 days with Eagle's Minimal Essential Media supplemented with fetal bovine serum, tryptose phosphate broth, cefotaxime and streptomycin. At confluence, daily supplements of 50 ug/ml ascorbic acid were added for 8 to 10 days during the synthesis of the ECM layer. [^35S]sulfate and [^3H]proline were also added to the culture media to incorporate radiolabel into the matrix. Cells were later lysed with 25 mM NH4OH. Plates were washed three times with water and once with phosphate-buffered saline containing 0.02% NaN3. Plates were stored at 4° C. until use.
Matrix degradation assays were performed as follows: 0.40 ml of Hanks balance salt solution (HBSS) containing 1 or 5 uM test inhibitor (final concentration; diluted from DMSO stock solution; <2% DMSO final concentration) was added to the wells. After 30 minutes, 50 ul of a polymorphoneucleocyte (PMN) suspension was added resulting in 5×10^5 cells/well. PMN's were stimulated with opsonized zymosan. Zymosan particles were washed and suspended in 0.5 ml human serum for 1 hr at 37° C., vortexing every 15 min. The particles were then washed three times with HBSS and added to wells at a ratio of 10 particles/PMN in a volume of 50 ul. After a 4 hr incubation at 37° C., a 100 ul aliquot of the supernatant was withdrawn for scintillation counting. Following removal of the remaining supernatant, the residual ECM was solubilized with 0.5 ml 2M NaOH. The amount of tritium in this solubilized ECM was accessed by scintillation. ECM degradation data are expressed as (soluble counts released/total ECM counts)—(basal counts released without PMN's/total ECM counts).

Row | Molecule | Ki [1] [nM] | ECM DATA % Inhibition 1 uM [2] [%] | ECM DATA % Inhibition 5 uM [2] [%] | inhibition at 1 µM [2] [%] | inhibition at 5 µM [2] [%]
1 | 2-Oxo-5-methyl-1,4-(2-phenyl-1-thiophenodiazepine)-N-[1-(2-[5-(3-methylbenzyl)-1,3,4-oxadiazolyl]carbonyl)-2-(S)-methylpropyl]acetamide [CE2245] | 24 | 34.7 | 39.3 |  | 
2 | Cc1cccc(Cc2nnc(C(=O)[C@@H](NC(=O)Cn3c(-c4ccc(F)cc4)ncc(NC(=O)OCc4ccccc4)c3=O)C(C)C)o2)c1 [CE2095, 2-[5-[(Benzyloxycarbonyl)amino]-6-oxo-2-(4-fluorophenyl)-1,6-dihydro-1-pyrimidinyl]-N-[1-(2-[5-(3-methylbenzyl)-1,3,4-oxadiazolyl]carbonyl)-(S)-2-methylpropyl]acetamide] | 0.21 |  |  | 60.4 | 55.6
3 | Cc1cccc(Cc2nnc(C(=O)[C@@H](NC(=O)CN3C(=O)N(Cc4ccccc4)C(=O)[C@H]3Cc3ccccc3)C(C)C)o2)c1 [CE2151, 1-Benzyl-4-(R)-benzyl-2,5-imidazolidinedione-N-[1-(2-[5-(3-methylbenzyl)-1,3,4-oxadiazolyl]carbonyl)-2-(S)-methylpropyl]acetamide] | 59 |  |  | 14.2 | -8.3
4 | Cc1cccc(Cc2nnc(C(=O)[C@@H](NC(=O)CN3C(=O)N[C@@H](Cc4ccccc4)C3=O)C(C)C)o2)c1 [CE2154, 5-(S)-Benzyl-2,4-imidazolidinedione-N-[1-(2-[5-(3-methylbenzyl)-1,3,4-oxadiazolyl]carbonyl)-2-(S)-methylpropyl]acetamide] | 10 |  |  | 54.6 | 65.4
5 | Cc1cccc(Cc2nnc(C(=O)[C@@H](NC(=O)[C@@H]3CCCN3C(=O)[C@@H](NC(=O)c3cccnc3)C(C)C)C(C)C)o2)c1 [CE2161, (Pyridyl-3-carbonyl)-L-valyl-N-[1-(2-[5-(3-methylbenzyl)-1,3,4-oxadiazolyl]carbonyl)-2-(S)-methylpropyl]-L-prolinamide] | 0.082 |  |  | 25 | 55
6 | Cc1cccc(Cc2nnc(C(=O)C(NC(=O)CN3C(=O)[C@@H](Cc4ccccc4)N(CCN4CCOCC4)C3=O)C(C)C)o2)c1 (stereo partly drawn) [CE2173, 1-(3-Morpholinoethyl)-5-(R)-benzyl-2,4-imidazolidinedione-N-[1-(2-[5-(3-methylbenzyl)-1,3,4-oxadiazolyl]carbonyl)-2-(R,S)-methylpropyl]acetamide] | 6.5 | 35.9 | 47.1 |  | 
7 | Cc1cccc(Cc2nnc(C(=O)C(NC(=O)CN3C(=O)N(Cc4ccccc4)C(=O)[C@@H]3Cc3ccccc3)C(C)C)o2)c1 (stereo partly drawn) [CE2191, 1-Benzyl-4-(S)-benzyl-2,5-imidazolidinedione-N-[1-(2-[5-(3-methylbenzyl)-1,3,4-oxadiazolyl]carbonyl)-2-(R,S)-methylpropyl]acetamide] | 85 | 29.35 | 30.5 |  | 
8 | Cc1cccc(Cc2nnc(C(=O)C(NC(=O)CN3C(=O)C(c4ccccc4)N(CCN4CCOCC4)C3=O)C(C)C)o2)c1 [CE2192, 1-(N-Morpholinoethyl)-5-(R,S)-phenyl-2,4-imidazolidinedione-N-[1-(2-[5-(3-methylbenzyl)-1,3,4-oxadiazolyl]carbonyl)-2-(R,S)-methylpropyl]acetamide] | 7.3 |  |  | 40.8 | 49.7
9 | Cc1cccc(Cc2nnc(C(=O)[C@@H](NC(=O)CN3C(=O)NC(c4ccncc4)(N4C(=O)CCC4=O)C3=O)C(C)C)o2)c1 (stereo partly drawn) [CE2206, [4-(R,S)-(4-pyridyl)-4-(R,S)-N-succinimidyl-1-2,5-imidazolidinedione-N-[1-2-[5-(3-methylbenzyl)-1,3,4-oxadiazolyl]carbonyl)-2-(S)-methylpropyl]acetamide] | 8.7 | 47.4 | 62.3 |  | 
10 | CCCCc1nnc(C(=O)C(NC(=O)CN2C(=O)C(N)N=C(c3ccccn3)c3ccccc32)C(C)C)o1 [CE2218, (R,S)-3-Amino-2-oxo-5-(2-pyridyl)-1,4-benzodiazepine-N-[1-(2-[5-(3-methylpropyl)-1,3,4-oxadiazolyl]carbonyl)-2-(R,S)-methylpropyl]acetamide] | 1.6 | 30.5 | 33.15 |  | 
11 | CC1=NC(N)C(=O)N(CC(=O)NC(C(=O)c2nnc(Cc3cccc(C)c3)o2)C(C)C)c2ccccc21 [CE2226, (R,S)-3-Amino-2-oxo-5-methyl-1,4-benzodiazepine-N-[1-(2-[5-(3-methylbenzyl)-1,3,4-oxadiazolyl]carbonyl)-2-(R,S)-methylpropyl]acetamide] | 10.3 |  |  | 27.6 | 52.2
12 | Cc1cccc(Cc2nnc(C(=O)C(NC(=O)CN3C(=O)C(N)N=C(c4ccccc4Cl)c4cc(Cl)ccc43)C(C)C)o2)c1 [CE2229, (R,S)-3-Amino-2-oxo-5-(2-chlorophenyl)-1,4-(2′-chlorobenzodiazepine)-N-[1-(2-[5-(3-methylbenzyl)-1,3,4-oxadiazolyl]carbonyl)-2-(R,S)-methylpropyl]acetamide] | 9.5 | 31.25 | 48.2 |  | 
13 | Cc1cccc(Cc2nnc(C(=O)[C@@H](NC(=O)Cn3c(-c4ccccn4)nc4ccccc43)C(C)C)o2)c1 [CE2234, 2-(2-Pyridyl)-benzimidazole-N-[1-(2-[5-(3-methylbenzyl)-1,3,4-oxadiazolyl]carbonyl)-2-(S)-methylpropyl]acetamide] | 796 |  |  | 39.7 | 35
14 | COc1cc2c(cc1OC)N(CC(=O)NC(C(=O)c1nnc(Cc3cccc(C)c3)o1)C(C)C)C(=O)C(N)N=C2C [CE2235, (R,S)-3-Amino-2-oxo-5-methyl-1,4-(2′,3′-dimethoxybenzodiazepine)-N-[1-(2-[5-(3-methylbenzyl)-1,3,4-oxadiazolyl]carbonyl)-2-(R,S)-methylpropyl]acetamide] | 9.5 | 19.75 | 13.25 |  | 
15 | Cc1ccc(C2=NCC(=O)N(CC(=O)N[C@H](C(=O)c3nnc(Cc4cccc(C)c4)o3)C(C)C)c3ccccc32)cc1 [CE2242, 2-Oxo-5-phenyl-1,4-(4′-methylbenzodiazepine)-N-[1-(2-[5-(3-methylbenzyl)-1,3,4-oxadiazolyl]carbonyl)-2-(S)-methylpropyl]acetamide] | 27 | 29.4 | 40.7 |  | 
16 | COc1ccccc1C1=NCC(=O)N(CC(=O)N[C@H](C(=O)c2nnc(Cc3cccc(C)c3)o2)C(C)C)c2ccccc21 [CE2250, 2-Oxo-5-(2-methoxyphenyl)-1,4-benzodiazepine-N-[1-(2-[5-(3-methylbenzyl)-1,3,4-oxadiazolyl]carbonyl)-2-(S)-methylpropyl]acetamide] | 6.9 |  |  | 27.4 | 48.6
17 | Cc1cccc(Cc2nnc(C(=O)[C@@H](NC(=O)CN3C(=O)N[C@H](Cc4ccc(O)cc4)C3=O)C(C)C)o2)c1 [CE2255, 4-(R)-(4-Hydroxybenzyl)-2,5-imidazolidinedione-N-[1-(2-[5-(3-methylbenzyl)-1,3,4-oxadiazolyl]carbonyl)-2-(S)-methylpropyl]acetamide] | 18 | 20.7 | 42 |  | 
18 | Cc1cccc(Cc2nnc(C(=O)[C@@H](NC(=O)CN3C(=O)N[C@H](c4ncc[nH]4)C3=O)C(C)C)o2)c1 [CE2257, 4-(R)-(2-Imidazolyl)-2,5-imidazolidinedione-N-[1-(2-[5-(3-methylbenzyl)-1,3,4-oxadiazolyl]carbonyl)-2-(S)-methylpropyl]acetamide] | 30 | 48.3 | 61.4 |  | 
19 | (R,S)-3-Amino-2-oxo-5-methyl-1,4-(1-thiophenodiazepine)-N-[1-(2-[5-(3-methylbenzyl)-1,3,4-oxadiazolyl]carbonyl)-2-(S)-methylpropyl]acetamide [CE2236] | 7.1 | 31.9 | 31.75 |  | 
20 | (R,S)-3-Amino-2-oxo-5-methyl-1,4-(2′,3′-methylenedioxy-benzodiazepine)-N-[1-(2-[5-(3-methylbenzyl)-1,3,4-oxadiazolyl]carbonyl)-2-(R,S)-methylpropyl]acetamide [CE2225] | 8.2 | 30.85 | 43.45 |  | 
